The assay concerns the target T1, Tyrosine-protein phosphatase non-receptor type 11 (Homo sapiens, UniProt Q06124).
T1 sequence (Q06124 whole entry): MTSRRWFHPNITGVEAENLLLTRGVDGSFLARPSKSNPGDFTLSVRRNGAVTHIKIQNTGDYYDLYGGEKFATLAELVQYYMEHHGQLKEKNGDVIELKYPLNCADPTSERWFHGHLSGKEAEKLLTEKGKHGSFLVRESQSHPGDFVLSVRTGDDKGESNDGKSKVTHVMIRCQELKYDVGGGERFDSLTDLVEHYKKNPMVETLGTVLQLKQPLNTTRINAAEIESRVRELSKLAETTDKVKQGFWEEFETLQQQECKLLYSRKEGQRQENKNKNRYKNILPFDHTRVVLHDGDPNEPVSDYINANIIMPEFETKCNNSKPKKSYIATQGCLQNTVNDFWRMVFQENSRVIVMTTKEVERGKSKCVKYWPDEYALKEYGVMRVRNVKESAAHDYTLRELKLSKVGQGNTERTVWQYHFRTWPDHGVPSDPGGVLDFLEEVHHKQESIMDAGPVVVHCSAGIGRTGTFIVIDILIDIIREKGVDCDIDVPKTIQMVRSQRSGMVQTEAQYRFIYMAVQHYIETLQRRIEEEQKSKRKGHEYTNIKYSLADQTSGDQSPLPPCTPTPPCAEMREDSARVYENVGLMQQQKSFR
As to the kind of experiment: pNPP assay.

pIC50: −log10 of the molar value.

In general, pIC50 refers to the IC50 on a negative log10 scale, so that one unit is a factor of ten. A high value points to a low IC50.

The molecule `[O]=[V]([OH])([OH])[OH]` gave a pIC50 of 4.46. Then `O=C(Nc1ccc(-c2ccc(NC(=O)c3ccc(F)cc3)cn2)cc1)c1ccc(F)cc1` [4-fluoro-N-(6-(4-(4-fluorobenzamido)phenyl)pyridin-3-yl)benzamide (29)], with 4.70.

Values taken from BindingDB's records for doi:10.1016/j.bmcl.2014.03.015 (Jiangnan University, 2014).
